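All cell lines were grown in 96-well plates and treated with compound for 48 hours. At the GI50, growth is halved.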 The source made the active and inactive calls. No stated cut-off is given here; in the data, active = GI50 up to about 1.1 µM and inactive = higher.
Columns and labels:
Assay in all cases: NCI anticancer screen, dose series, 48 h
HCT-15 = tested on: HCT-15
MCF7 = tested on: MCF7
KM12 = tested on: KM12
HT-29 = tested on: HT-29
HOP-62 = tested on: HOP-62
SF-268 = tested on: SF-268
SF-539 = tested on: SF-539
OVCAR-3 = tested on: OVCAR-3
MDA-MB-231 = tested on: MDA-MB-231
HCC 2998 = tested on: HCC 2998
M14 = tested on: M14
SK-MEL-28 = tested on: SK-MEL-28
RPMI-8226 = tested on: RPMI-8226
NCI-H460 = tested on: NCI-H460
SF-295 = tested on: SF-295
UACC-257 = tested on: UACC-257
Hs-578T = tested on: Hs-578T
MDA-MB-435 = tested on: MDA-MB-435
UO-31 = tested on: UO-31

Compound | GI50 (HCT-15) [µM] | GI50 (MCF7) | GI50 (KM12) | GI50 (HT-29) | GI50 (HOP-62) | GI50 (SF-268) | GI50 (SF-539) | GI50 (OVCAR-3) | GI50 (MDA-MB-231) | GI50 (HCC 2998) | GI50 (M14) | GI50 (SK-MEL-28) | GI50 (RPMI-8226) | GI50 (NCI-H460) | GI50 (SF-295) | GI50 (UACC-257) | GI50 (Hs-578T) | GI50 (MDA-MB-435) | GI50 (UO-31)
CN(CCCNC(=O)c1nn(-c2ccc(Cl)cc2Cl)c2c1ccc1ccccc12)CCCNC(=O)c1nn(-c2ccc(Cl)cc2Cl)c2c1ccc1ccccc12 | 1.7 | 1.56 µM (inactive) | 1.77 µM (inactive) | 1.57 µM (inactive) | 1.77 µM (inactive) | 1.61 µM (inactive) | 1.76 µM (inactive) | 1.72 µM (inactive) | 1.75 µM (inactive) | 1.53 µM (inactive) | 1.6 µM (inactive) | 1.66 µM (inactive) | 1.87 µM (inactive) | 1.78 µM (inactive) | 1.67 µM (inactive) | 1.78 µM (inactive) | 1.44 µM (inactive) | 1.71 µM (inactive) | 
CC1C2CC(CC23OCC(CCl)O3)C1(C)C (centres undefined) | > 100 | > 100 µM (inactive) | > 100 µM (inactive) | > 100 µM (inactive) | > 100 µM (inactive) | > 100 µM (inactive) | > 100 µM (inactive) | > 100 µM (inactive) | > 100 µM (inactive) | > 100 µM (inactive) | > 100 µM (inactive) | > 100 µM (inactive) | > 100 µM (inactive) | > 100 µM (inactive) | > 100 µM (inactive) | > 100 µM (inactive) | > 100 µM (inactive) | > 100 µM (inactive) | > 100 µM (inactive)
COC(=O)C1CCC(=O)N1C(c1ccccc1)c1ccc(OC)c(OC)c1 (centres undefined) | > 100 | > 100 µM (inactive) | > 100 µM (inactive) | > 100 µM (inactive) | > 100 µM (inactive) | > 100 µM (inactive) | > 100 µM (inactive) | > 100 µM (inactive) | > 100 µM (inactive) | > 100 µM (inactive) | > 100 µM (inactive) | > 100 µM (inactive) | > 100 µM (inactive) | > 100 µM (inactive) | > 100 µM (inactive) | > 100 µM (inactive) | > 100 µM (inactive) | > 100 µM (inactive) | > 100 µM (inactive)
Cc1cc(NS(=O)(=O)c2ccc(/N=N/c3c(O)c(C(=O)O)cc4ccccc34)cc2)nc(C)n1 | > 100 | > 100 µM (inactive) | > 100 µM (inactive) | > 100 µM (inactive) | > 100 µM (inactive) | > 100 µM (inactive) | > 100 µM (inactive) | > 100 µM (inactive) | > 100 µM (inactive) | > 100 µM (inactive) | > 100 µM (inactive) | > 100 µM (inactive) | > 100 µM (inactive) | > 100 µM (inactive) | > 100 µM (inactive) | > 100 µM (inactive) | > 100 µM (inactive) | > 100 µM (inactive) | > 100 µM (inactive)
COC(=O)/C=C/[C@H]1[C@H](C)N1S(=O)(=O)c1ccc(C)cc1 (some centres undefined) | > 100 | 64.3 µM (inactive) | > 100 µM (inactive) | > 100 µM (inactive) | > 100 µM (inactive) | > 100 µM (inactive) | 37 µM (inactive) | 58.7 µM (inactive) | > 100 µM (inactive) | > 100 µM (inactive) | > 100 µM (inactive) | > 100 µM (inactive) | 51.6 µM (inactive) | > 100 µM (inactive) | > 100 µM (inactive) | > 100 µM (inactive) | > 100 µM (inactive) | 56.5 µM (inactive) | 
Cc1csc(-n2nc(C)cc2C)n1 | > 100 | > 100 µM (inactive) | > 100 µM (inactive) | > 100 µM (inactive) | > 100 µM (inactive) | > 100 µM (inactive) | > 100 µM (inactive) | > 100 µM (inactive) | > 100 µM (inactive) | > 100 µM (inactive) | > 100 µM (inactive) | > 100 µM (inactive) | > 100 µM (inactive) | > 100 µM (inactive) | > 100 µM (inactive) | > 100 µM (inactive) | > 100 µM (inactive) | > 100 µM (inactive) | > 100 µM (inactive)
CC(=O)C1=C(c2ccccc2)N(C2OC(CO)C(O)C(O)C2O)C(S)=C(C#N)C1c1ccc(Cl)cc1 (centres undefined) | 23 | 20.1 µM (inactive) | 23.2 µM (inactive) | 31 µM (inactive) | 30.2 µM (inactive) | 24.8 µM (inactive) | 18.2 µM (inactive) | 21.6 µM (inactive) | 28.1 µM (inactive) | 17.7 µM (inactive) | 21 µM (inactive) | 20.7 µM (inactive) | 29.9 µM (inactive) | 21.9 µM (inactive) | 35.9 µM (inactive) | 25.4 µM (inactive) | 25.8 µM (inactive) | 23.6 µM (inactive) | 28.8 µM (inactive)
COc1cc2c(cc1OC)C(=O)/C(=C/c1ccc([N+](=O)[O-])cc1)CC2 | > 10 | > 10 µM (inactive) | > 10 µM (inactive) | > 10 µM (inactive) | > 10 µM (inactive) | > 10 µM (inactive) | > 10 µM (inactive) | > 10 µM (inactive) | > 10 µM (inactive) | > 10 µM (inactive) | > 10 µM (inactive) | > 10 µM (inactive) | > 10 µM (inactive) | > 10 µM (inactive) | > 10 µM (inactive) | > 10 µM (inactive) | > 10 µM (inactive) | > 10 µM (inactive) | 

— ChEMBL document CHEMBL1201862, “PubChem BioAssay data set” (2004)
